From PMC5218480 (PLoS ONE, 2017)

Test system: MV-4-11 cells
Assay: Gene expression microarray analysis (Affymetrix PrimeView) and GSEA
Format: cell-based, human
Parameters: RFU PODN (11730768_x_at) / Fold change /veh PODN (11730768_x_at) / RFU LINC00158 (11744669_a_at) / Fold change /veh LINC00158 (11744669_a_at) / RFU DUSP10 (11751237_a_at) / Fold change /veh DUSP10 (11751237_a_at) / RFU ID3 (11757404_x_at) / Fold change /veh ID3 (11757404_x_at) / RFU PLEKHG5 (11737974_s_at) / Fold change /veh PLEKHG5 (11737974_s_at) / RFU LRRC4B (11730491_at) / Fold change /veh LRRC4B (11730491_at) / RFU GIMAP4 (11747438_a_at) / Fold change /veh GIMAP4 (11747438_a_at) / RFU KRT8 (11758183_x_at) / Fold change /veh KRT8 (11758183_x_at) / RFU CNN1 (11734310_a_at) / Fold change /veh CNN1 (11734310_a_at) / RFU VPS37D (11726825_at) / Fold change /veh VPS37D (11726825_at) / RFU C10orf10 (11716522_x_at) / Fold change /veh C10orf10 (11716522_x_at) / RFU KIR2DL2 /// KIR2DL4 /// KIR2DL5A /// KIR2DL5B /// KIR2DS1 /// KIR2DS2 /// KIR2DS3 /// KIR2DS4 /// KIR3DL3 /// KIR3DL3 /// KIR3DS1 (11738374_at) / Fold change /veh KIR2DL2 /// KIR2DL4 /// KIR2DL5A /// KIR2DL5B /// KIR2DS1 /// KIR2DS2 /// KIR2DS3 /// KIR2DS4 /// KIR3DL3 /// KIR3DL3 /// KIR3DS1 (11738374_at) / RFU C1QL1 (11718748_at) / Fold change /veh C1QL1 (11718748_at) / RFU TMPRSS4 (11747572_a_at) / Fold change /veh TMPRSS4 (11747572_a_at) / RFU HAMP (11756126_x_at) / Fold change /veh HAMP (11756126_x_at) / RFU RNFT2 (11725882_a_at) / Fold change /veh RNFT2 (11725882_a_at) / RFU NR4A2 (11747474_a_at) / Fold change /veh NR4A2 (11747474_a_at) / RFU ABCC12 (11746883_a_at) / Fold change /veh ABCC12 (11746883_a_at) / RFU TMEM136 (11760407_x_at) / Fold change /veh TMEM136 (11760407_x_at) / RFU CLDN22 /// WWC2 (11732394_at) / Fold change /veh CLDN22 /// WWC2 (11732394_at) / RFU HLA-DPB1 (11760878_x_at) / Fold change /veh HLA-DPB1 (11760878_x_at) / RFU SPINT1 (11716480_a_at) / Fold change /veh SPINT1 (11716480_a_at) / RFU GAP43 (11754022_s_at) / Fold change /veh GAP43 (11754022_s_at) / RFU A4GNT (11735810_at) / Fold change /veh A4GNT (11735810_at) / RFU PRB3 (11715151_x_at) / Fold change /veh PRB3 (11715151_x_at) / RFU TUBB4B (11761932_at) / Fold change /veh TUBB4B (11761932_at) / RFU CAPN14 (11732068_a_at) / Fold change /veh CAPN14 (11732068_a_at) / RFU TMCC2 (11721928_a_at) / Fold change /veh TMCC2 (11721928_a_at) / RFU IRGQ (11745062_a_at) / Fold change /veh IRGQ (11745062_a_at) / RFU FAM174B (11720279_a_at) / Fold change /veh FAM174B (11720279_a_at) / RFU TMPRSS4 (11748680_a_at) / Fold change /veh TMPRSS4 (11748680_a_at) / RFU FAM212B (11763350_a_at) / Fold change /veh FAM212B (11763350_a_at) / RFU PLEKHG5 (11743358_a_at) / Fold change /veh PLEKHG5 (11743358_a_at) / RFU ZSCAN30 (11745921_a_at) / Fold change /veh ZSCAN30 (11745921_a_at) / RFU CMKLR1 (11741424_a_at) / Fold change /veh CMKLR1 (11741424_a_at) / RFU LOC101060620 /// MAPK8IP1 (11723275_at) / Fold change /veh LOC101060620 /// MAPK8IP1 (11723275_at) / RFU SPTSSB (11747773_x_at) / Fold change /veh SPTSSB (11747773_x_at) / RFU PRSS12 (11739890_at) / Fold change /veh PRSS12 (11739890_at) / RFU BIN1 (11741810_x_at) / Fold change /veh BIN1 (11741810_x_at) / RFU WNT11 (11732464_a_at) / Fold change /veh WNT11 (11732464_a_at) / RFU C10orf10 (11716521_a_at) / Fold change /veh C10orf10 (11716521_a_at) / RFU C5orf56 (11738089_at) / Fold change /veh C5orf56 (11738089_at) / RFU CYB561 (11721691_x_at) / Fold change /veh CYB561 (11721691_x_at) / RFU ANKRD19P (11752326_a_at) / Fold change /veh ANKRD19P (11752326_a_at) / RFU OR2T12 /// OR2T33 /// OR2T8 (11738714_s_at) / Fold change /veh OR2T12 /// OR2T33 /// OR2T8 (11738714_s_at) / RFU VCAN (11748164_a_at) / Fold change /veh VCAN (11748164_a_at) / RFU JSRP1 (11732532_at) / Fold change /veh JSRP1 (11732532_at) / RFU KRTAP10-11 (11738290_x_at) / Fold change /veh KRTAP10-11 (11738290_x_at) / RFU MYO3A (11730013_a_at) / Fold change /veh MYO3A (11730013_a_at) / RFU EBF3 (11725865_a_at) / Fold change /veh EBF3 (11725865_a_at) / RFU CAMK2N1 (11719241_x_at) / Fold change /veh CAMK2N1 (11719241_x_at) / RFU C5orf56 (11738088_a_at) / Fold change /veh C5orf56 (11738088_a_at) / RFU OLFML3 (11715873_a_at) / Fold change /veh OLFML3 (11715873_a_at) / RFU LOC100653217 /// NTM (11731650_a_at) / Fold change /veh LOC100653217 /// NTM (11731650_a_at) / RFU MAPK11 (11762145_a_at) / Fold change /veh MAPK11 (11762145_a_at) / RFU FIZ1 (11724087_x_at) / Fold change /veh FIZ1 (11724087_x_at) / RFU OASL (11726364_x_at) / Fold change /veh OASL (11726364_x_at) / RFU SOX15 (11748057_x_at) / Fold change /veh SOX15 (11748057_x_at) / RFU CD79A (11719716_a_at) / Fold change /veh CD79A (11719716_a_at) / RFU HIST1H1D (11736915_at) / Fold change /veh HIST1H1D (11736915_at) / RFU CASKIN2 (11723855_a_at) / Fold change /veh CASKIN2 (11723855_a_at) / RFU LOC730098 (11760151_x_at) / Fold change /veh LOC730098 (11760151_x_at) / RFU OR4N2 (11742367_at) / Fold change /veh OR4N2 (11742367_at) / RFU PRRT2 (11749266_a_at) / Fold change /veh PRRT2 (11749266_a_at) / RFU SNX32 (11753110_a_at) / Fold change /veh SNX32 (11753110_a_at) / RFU CDHR5 (11726645_a_at) / Fold change /veh CDHR5 (11726645_a_at) / RFU RCAN1 (11760418_a_at) / Fold change /veh RCAN1 (11760418_a_at) / RFU FAM167A (11723789_a_at) / Fold change /veh FAM167A (11723789_a_at) / RFU FAM26E (11764081_at) / Fold change /veh FAM26E (11764081_at) / RFU ISYNA1 (11749810_s_at) / Fold change /veh ISYNA1 (11749810_s_at) / RFU ACY1 (11761880_at) / Fold change /veh ACY1 (11761880_at) / RFU 11764098_at / Fold change /veh 11764098_at / RFU SAMD14 (11745864_x_at) / Fold change /veh SAMD14 (11745864_x_at) / RFU NPB (11741838_a_at) / Fold change /veh NPB (11741838_a_at) / RFU TMPRSS6 (11731388_a_at) / Fold change /veh TMPRSS6 (11731388_a_at) / RFU KRTAP10-2 (11738614_at) / Fold change /veh KRTAP10-2 (11738614_at) / RFU ARHGAP8 /// PRR5-ARHGAP8 (11727945_x_at) / Fold change /veh ARHGAP8 /// PRR5-ARHGAP8 (11727945_x_at) / RFU KRTAP5-7 /// NADSYN1 (11734609_at) / Fold change /veh KRTAP5-7 /// NADSYN1 (11734609_at) / RFU RASL12 (11751679_a_at) / Fold change /veh RASL12 (11751679_a_at) / RFU CDKN2B (11736163_a_at) / Fold change /veh CDKN2B (11736163_a_at) / RFU PRF1 (11729649_at) / Fold change /veh PRF1 (11729649_at) / RFU, ZNF638 /// ZNF638-IT1 / Fold change vs veh, ZNF638 /// ZNF638-IT1 / RFU, PANK3 / Fold change vs veh, PANK3 / RFU, SH3YL1 / Fold change vs veh, SH3YL1 / RFU, ZEB2 / Fold change vs veh, ZEB2 / RFU, NRIP1 / Fold change vs veh, NRIP1 / RFU, PTTG1IP / Fold change vs veh, PTTG1IP / RFU, CAPN2 / Fold change vs veh, CAPN2 / RFU, MED14 / Fold change vs veh, MED14 / RFU, SNORA58 / Fold change vs veh, SNORA58 / RFU, C1orf63 / Fold change vs veh, C1orf63 / RFU, LRRFIP1 / Fold change vs veh, LRRFIP1 / RFU, NDUFAF7 / Fold change vs veh, NDUFAF7 / RFU, SLC12A2 / Fold change vs veh, SLC12A2 / RFU, IBTK / Fold change vs veh, IBTK / RFU, ESF1 / Fold change vs veh, ESF1 / Fold change vs veh, TMEM50B / RFU, TAOK1 / Fold change vs veh, TAOK1 / RFU, ACBD3 / Fold change vs veh, ACBD3 / RFU, TMA16 / Fold change vs veh, TMA16 / RFU, RWDD3 / Fold change vs veh, RWDD3 / RFU, BCAT1 / Fold change vs veh, BCAT1 / RFU, EDEM3 / Fold change vs veh, EDEM3 / RFU, TMEM33 / Fold change vs veh, TMEM33 / RFU, WDR75 / Fold change vs veh, WDR75 / RFU, AHCTF1 / Fold change vs veh, AHCTF1 / RFU, TFRC / Fold change vs veh, TFRC / RFU, ZDHHC17 / Fold change vs veh, ZDHHC17 / RFU, NOM1 / Fold change vs veh, NOM1 / RFU, ARL8B / Fold change vs veh, ARL8B / RFU, ZBTB11 / Fold change vs veh, ZBTB11 / RFU, TAMM41 / Fold change vs veh, TAMM41 / RFU, KIAA1704 /// LOC100996395 / Fold change vs veh, KIAA1704 /// LOC100996395 / RFU, ING1 / Fold change vs veh, ING1 / RFU, TRMT61B / Fold change vs veh, TRMT61B / RFU, FUBP3 / Fold change vs veh, FUBP3 / RFU, TP53 / Fold change vs veh, TP53 / RFU, TNKS2 / Fold change vs veh, TNKS2 / RFU, ZFP14 / Fold change vs veh, ZFP14 / RFU, ACTR2 / Fold change vs veh, ACTR2 / RFU, PPP3R1 / Fold change vs veh, PPP3R1 / RFU, PIK3R1 / Fold change vs veh, PIK3R1 / RFU, HNRNPA1 / Fold change vs veh, HNRNPA1 / RFU, RNF170 / Fold change vs veh, RNF170 / RFU, ZNF28 / Fold change vs veh, ZNF28 / RFU, RNGTT / Fold change vs veh, RNGTT / RFU, OGT / Fold change vs veh, OGT / RFU, BRD1 / Fold change vs veh, BRD1 / RFU, MARS / Fold change vs veh, MARS / RFU, ZNF655 / Fold change vs veh, ZNF655 / RFU, FAHD1 / Fold change vs veh, FAHD1 / RFU, BDP1 / Fold change vs veh, BDP1 / RFU, LRRCC1 / Fold change vs veh, LRRCC1 / RFU, ARID1A / Fold change vs veh, ARID1A / RFU, ZNF146 / Fold change vs veh, ZNF146 / RFU, ZNF330 / Fold change vs veh, ZNF330 / RFU, GPN3 / Fold change vs veh, GPN3 / RFU, C9orf123 / Fold change vs veh, C9orf123 / RFU, N4BP2L2 / Fold change vs veh, N4BP2L2 / RFU, ARFIP1 / Fold change vs veh, ARFIP1 / RFU, FAM179B / Fold change vs veh, FAM179B / RFU, BCL10 / Fold change vs veh, BCL10 / RFU, UHRF1BP1L / Fold change vs veh, UHRF1BP1L / RFU, BET1 / Fold change vs veh, BET1 / RFU, CNOT2 / Fold change vs veh, CNOT2 / RFU, ZNF268 / Fold change vs veh, ZNF268 / Fold change vs veh, ZNF507 / RFU, DGCR2 / Fold change vs veh, DGCR2 / RFU, WDSUB1 / Fold change vs veh, WDSUB1 / Fold change vs veh, HSP90B1 /// MIR3652 / RFU, ADSS / Fold change vs veh, ADSS / RFU, GK / Fold change vs veh, GK / RFU, ZNF148 / Fold change vs veh, ZNF148 / RFU, TAF9 / Fold change vs veh, TAF9 / RFU, SLC1A5 / Fold change vs veh, SLC1A5 / RFU, SLMO2 / Fold change vs veh, SLMO2 / RFU, ABCC4 / Fold change vs veh, ABCC4 / RFU, LOC101060439 /// RAP1B / Fold change vs veh, LOC101060439 /// RAP1B / RFU, RFX7 / Fold change vs veh, RFX7 / RFU, GTPBP10 / Fold change vs veh, GTPBP10 / RFU, CNEP1R1 / Fold change vs veh, CNEP1R1 / RFU, BIVM-ERCC5 /// ERCC5 / Fold change vs veh, BIVM-ERCC5 /// ERCC5 / RFU, ILF3 / Fold change vs veh, ILF3 / RFU 11762660_at / Fold change /veh 11762660_at / RFU VCAN (11757783_s_at) / Fold change /veh VCAN (11757783_s_at) / RFU DDX43 (11728927_at) / Fold change /veh DDX43 (11728927_at) / RFU KRT8 (11758188_x_at) / Fold change /veh KRT8 (11758188_x_at) / RFU NKD1 (11759106_at) / Fold change /veh NKD1 (11759106_at) / RFU SRD5A1 (11742802_a_at) / Fold change /veh SRD5A1 (11742802_a_at) / RFU TPSAB1 /// TPSB2 (11721975_s_at) / Fold change /veh TPSAB1 /// TPSB2 (11721975_s_at) / RFU GSTM3 (11746129_a_at) / Fold change /veh GSTM3 (11746129_a_at) / RFU IL23R (11737362_x_at) / Fold change /veh IL23R (11737362_x_at) / RFU TMEM51 (11727254_a_at) / Fold change /veh TMEM51 (11727254_a_at) / RFU PIWIL2 (11732686_x_at) / Fold change /veh PIWIL2 (11732686_x_at) / RFU ORM1 (11744905_x_at) / Fold change /veh ORM1 (11744905_x_at) / RFU CCDC152 (11743942_at) / Fold change /veh CCDC152 (11743942_at) / RFU ECM1 (11717891_a_at) / Fold change /veh ECM1 (11717891_a_at) / RFU IL23R (11748794_a_at) / Fold change /veh IL23R (11748794_a_at) / RFU TNFAIP8L3 (11732012_x_at) / Fold change /veh TNFAIP8L3 (11732012_x_at) / RFU MBOAT4 (11741988_at) / Fold change /veh MBOAT4 (11741988_at) / RFU 11764193_at / Fold change /veh 11764193_at / RFU TMEM53 (11763286_at) / Fold change /veh TMEM53 (11763286_at) / RFU MAGEB2 (11727129_at) / Fold change /veh MAGEB2 (11727129_at) / RFU TMEM200A (11744735_a_at) / Fold change /veh TMEM200A (11744735_a_at) / RFU CCDC152 (11751479_a_at) / Fold change /veh CCDC152 (11751479_a_at) / RFU FAM211A (11726209_a_at) / Fold change /veh FAM211A (11726209_a_at) / RFU RGS16 (11746705_a_at) / Fold change /veh RGS16 (11746705_a_at) / RFU VCAN (11755009_s_at) / Fold change /veh VCAN (11755009_s_at) / RFU RHOB (11743442_s_at) / Fold change /veh RHOB (11743442_s_at) / RFU RGS16 (11720943_a_at) / Fold change /veh RGS16 (11720943_a_at) / RFU RGS16 (11720944_at) / Fold change /veh RGS16 (11720944_at) / RFU, VPS4B / Fold change vs veh, VPS4B / RFU, CREB1 / Fold change vs veh, CREB1 / RFU, DNAJC13 / Fold change vs veh, DNAJC13 / RFU, GNAQ / Fold change vs veh, GNAQ / RFU, CDK5R1 / Fold change vs veh, CDK5R1 / RFU, ZRANB3 / Fold change vs veh, ZRANB3 / RFU, CUL4A / Fold change vs veh, CUL4A / RFU, CCNY / Fold change vs veh, CCNY / RFU, UFL1 / Fold change vs veh, UFL1 / RFU, COG3 / Fold change vs veh, COG3 / RFU, DIAPH2 / Fold change vs veh, DIAPH2 / RFU, SKA2 / Fold change vs veh, SKA2 / RFU, AFF3 / Fold change vs veh, AFF3 / RFU, LMF1 / Fold change vs veh, LMF1 / RFU, IPO11 / Fold change vs veh, IPO11 / RFU, DFFB / Fold change vs veh, DFFB / RFU, FOXP1 / Fold change vs veh, FOXP1 / RFU, CARD8 / Fold change vs veh, CARD8 / RFU, STRN3 / Fold change vs veh, STRN3 / RFU, ADK / Fold change vs veh, ADK / RFU, RASSF2 / Fold change vs veh, RASSF2 / RFU, WIPF1 / Fold change vs veh, WIPF1 / RFU, LARP1B / Fold change vs veh, LARP1B / RFU, RASA1 / Fold change vs veh, RASA1 / RFU, RB1 / Fold change vs veh, RB1 / RFU, PPFIA1 / Fold change vs veh, PPFIA1 / RFU, MAT2A / Fold change vs veh, MAT2A / RFU, CCT5 / Fold change vs veh, CCT5 / RFU, WDR92 / Fold change vs veh, WDR92 / RFU, CUX1 / Fold change vs veh, CUX1 / RFU, TTC7A / Fold change vs veh, TTC7A / RFU, TMEM135 / Fold change vs veh, TMEM135 / RFU, DEPTOR / Fold change vs veh, DEPTOR / RFU, CPM / Fold change vs veh, CPM / RFU, DNAJB6 / Fold change vs veh, DNAJB6 / RFU, CACNA2D3 / Fold change vs veh, CACNA2D3 / RFU, DTX4 / Fold change vs veh, DTX4 / RFU, TFCP2 / Fold change vs veh, TFCP2 / RFU, GMCL1 /// GMCL1P1 / Fold change vs veh, GMCL1 /// GMCL1P1 / RFU, AEBP2 / Fold change vs veh, AEBP2 / RFU, SNHG1 /// SNORD22 /// SNORD25 /// SNORD26 /// SNORD27 /// SNORD28 /// SNORD29 /// SNORD31 / Fold change vs veh, SNHG1 /// SNORD22 /// SNORD25 /// SNORD26 /// SNORD27 /// SNORD28 /// SNORD29 /// SNORD31 / Fold change (Aza/veh), C12orf56 (ProbeSet 11735607_a_at) / Fold change (ACY-1035/veh), C12orf56 (ProbeSet 11735607_a_at) / Fold change (Aza/veh), FGFR1OP (ProbeSet 11751329_s_at) / Fold change (ACY-1035/veh), FGFR1OP (ProbeSet 11751329_s_at) / Fold change (Aza/veh), VPS36 (ProbeSet 11739960_a_at) / Fold change (ACY-1035/veh), VPS36 (ProbeSet 11739960_a_at) / RFU SYPL1 (11715823_x_at) / Fold change /veh SYPL1 (11715823_x_at) / RFU IGFBP7 (11715501_s_at) / Fold change /veh IGFBP7 (11715501_s_at) / RFU REEP3 (11722064_at) / Fold change /veh REEP3 (11722064_at) / RFU IGLL1 (11728026_x_at) / Fold change /veh IGLL1 (11728026_x_at): dose or concentration left out as unconfirmed
Conditions: ProbeSet 11731583_a_at; LIST D

Nc1ncn([C@@H]2O[C@H](CO)[C@@H](O)[C@H]2O)c(=O)n1 [azacitidine]
Fold change vs veh, LARP1B: 0.75
